Reference: patent US20190365673A1, “Immunomodulatory Compounds” (Lankenau Institute for Medical Research, priority 2016, published 2019)

What was measured:
B16F10-pBABE cells = assay: Cell viability assay, B16F10-pBABE; settings: Mus musculus, read-out: IC50 (cytotoxicity)
Description: (§1) Cell proliferation assays were conducted in 96-well plates at 25-30% starting confluence to determine the effect of exposure to increasing concentrations of PLX4720 or AP with or without 1 mM DFMO for 72 hours. Cell viability was assessed using the EZQuant™ Cell Quantifying Kit (Alstem) in which WST-8 is reduced by the metabolic activity of live cells to formazan dye. For spheroids treated with PLX4720 and/or AP, viability of the spheroid cells was estimated by quantification of the ATP present using a CellTiter-Glo Luminescent Cell Viability Assay (Promega Co., Madison, Wis.). The 72 hour IC50 values for AP were calculated using non-linear regression (sigmoidal dose response) of the plot of percentage inhibition versus the log of inhibitor concentration in GraphPad Prism (v5; GraphPad Software, Inc., La Jolla, Calif.).

WM989 melanoma cells = assay: Cell viability assay (EZQuant), WM989; type: cell-based; settings: Homo sapiens; AP alone, 72 h, WM989, BRAF V600E
Description: (§3) Cell proliferation assays were conducted in 96-well plates at 25-30% starting confluence to determine the effect of exposure to increasing concentrations of PLX4720 or AP with or without 1 mM DFMO for 72 hours. Cell viability was assessed using the EZQuant™ Cell Quantifying Kit (Alstem) in which WST-8 is reduced by the metabolic activity of live cells to formazan dye. […] The 72 hour IC50 values for AP were calculated using non-linear regression (sigmoidal dose response) of the plot of percentage inhibition versus the log of inhibitor concentration in GraphPad Prism (v5; GraphPad Software, Inc., La Jolla, Calif.).

1205Lu melanoma cells = assay: Cell viability assay (EZQuant), 1205Lu; type: cell-based; settings: Homo sapiens, AP alone, 72 h, BRAF V600E
Description: as §3

WM3451 melanoma cells = assay: Cell viability assay (EZQuant), WM3451; type: cell-based; settings: Homo sapiens; AP alone, 72 h, WM3451, BRAF WT
Description: as §3

[1] = system: 1205Lu melanoma spheroids; assay: 3D spheroid culture viability (CellTiter-Glo); type: cell-based, human; settings: FIG. 10, 25 μM each drug, 48 h, 3D spheroids on NCPs
Description: (§2) BRAF^V600E mutant 1205Lu melanoma cells were seeded at 1×10^4 cells in each well of the […] NCPs. When spheroids were formed on day 3, the 3D cultures of spheroids were treated with PLX4720 (25 μM) and/or AP (25 μM). 2D monolayer cultures of 1205Lu melanoma cells were also treated with PLX4720 (25 μM) and/or AP (25 μM). After drug treatment for 48 hours, the viability of spheroids and monolayer cultures was assayed using the CellTiter-Glo Luminescent Cell Viability Assay. The percent cell survival in each treatment group was calculated relative to cells treated with medium only under the same conditions. As controls, the growth of cells without drug treatment under each condition was normalized as 100% separately. The means are presented±SD.
The inorganic nanoscale scaffolding NanoCulture plates (NCP) were purchased from SCIVAX. The base of each NCP is constructed with a transparent cyclo-olefin resinous sheet with a nanoscale indented pattern. To form spheroids, 1205Lu human melanoma cells were seeded in 96-well NCPs at 1×10^4 cells/well in MCDB153 (Sigma)/Leibovitz's L-15 (Cellgro) medium (4:1 ratio) supplemented with 2% heat-inactivated fetal calf serum and 2 mM CaCl2 and incubated in a conventional cell incubator at 37° C. in an atmosphere of 5% CO2 and normal O2 levels. […]

[2] = system: 1205Lu melanoma monolayer cultures; assay: 2D monolayer culture viability (CellTiter-Glo); type: cell-based, human; settings: FIG. 10, 25 μM each drug, 48 h
Description: as §2

B16F10-BRAF^V600E cells = assay: Cell viability assay, B16F10-BRAF V600E; settings: Mus musculus, read-out: IC50 (cytotoxicity)
Description: as §1

[3] = system: polyamine transport system (PTS); assay: Radiolabeled spermidine transport assay, human melanoma cell lines; type: cell-based; settings: ± SD
Description: Polyamine transport in tumor cells was evaluated essentially as described (Kramer, et al. (1993) J. Cell Physiol., 155(2):399-407; Nilsson, et al. (2005) Cancer Cell 7(5):433-444). Radioactive spermidine (Net-522 Spermidine Trihydrochloride, [Terminal Methylenes-^3H(n)]) from Perkin Elmer was used (specific activity: 16.6 Ci/mmol). Cells were plated in 96 well plates and grown to approximately 80% confluence. Half of the cells were treated with 1 mM DFMO for 40 hours. After repeated washing with PBS, ^3H-spermidine was added at 1 μM and incubated for 60 minutes at 37° C. Cells were then washed with cold PBS containing 50 μM spermidine and lysed in 0.1% SDS at 37° C. for 30 minutes with mixing. Cell lysates were then aliquoted for scintillation counting and for protein assay using a mini-BioRad assay. Results were expressed as CPM/g protein.

[4] = system: BRAF-mutant melanoma tumor; assay: BRAF-mutant melanoma tumor in mice treated with PLX4720; type: in vivo; settings: FIG. 11, co-treatment with PLX4720, begun when the tumor has regressed
Description: FIG. 11 provides a graph of tumor volume in mice over time after treatment with PLX4720 alone or PLX4720 with delayed administration of AP and DFMO.
In addition to the above, the efficacy of AP in vivo was also tested.

WM3211 melanoma cells = assay: Cell viability assay (EZQuant), WM3211; type: cell-based; settings: Homo sapiens; AP alone, 72 h, WM3211, BRAF WT
Description: as §3

[5] = system: BRAF^V600E YUMM1.7 melanoma cells; assay: Cell viability assay (EZQuant), YUMM1.7; type: cell-based, murine; settings: FIGS. 9A, 9B, 72 h
Description: FIG. 9A: Murine BRAF^V600E YUMM1.7 melanoma cells and BRAF^WT B16F10 melanoma cells were treated with increasing doses of AP. After 72 hours of culture, cell survival was determined via EZQuant™ Cell Quantifying assay. IC50 values were calculated by GraphPad Prism 6. FIG. 9B: Murine BRAF^V600E YUMM1.7 melanoma cells and BRAF^WT B16F10 melanoma cells were treated with increasing doses of AP±1 mM DFMO or with PLX4720. After 72 hours of culture, cell survival was determined via EZQuant™ Cell Quantifying assay. IC50 values were calculated by GraphPad Prism 6. […] Cells were washed with cold PBS containing 50 μM spermidine, and cell lysates were assayed for CPM ^3H-spermidine per mg protein by scintillation counting.

[6] = system: CXCR4^+ RAW247.6 macrophage cells; assay: In vitro chemotaxis assay, SDF-1 stimulated migration; type: cell-based
Description: The ability to inhibit stromal cell-derived factor 1 (SDF-1) stimulated migration of macrophage was also tested in an in vitro chemotaxis assay. Specifically, CXCR4^+ RAW247.6 macrophage cells were treated with SDF-1α alone or with AMD3100, a specific CXCR4 antagonist which inhibits cell migration and phosphorylation of ERK1/2 by SDF-1, or AP (Formula (II)).

SMILES: CNCNCNCc1ccc(CNCNCNC)c2ccccc12 [AP]
- IC50 (B16F10-pBABE cells): 36.4 µM
- IC50 (WM989 melanoma cells): 1.2 µM
- IC50 (1205Lu melanoma cells): 0.7 µM
- IC50 (WM3451 melanoma cells): 9 µM
- cell viability of spheroid cultures [1]: similarly sensitive
- cell viability of monolayer cultures [2]: similarly sensitive
- IC50 (B16F10-BRAF^V600E cells): 24.4 µM
- PTS Activity (cpm ^3H Spd/μg Protein) ([3]; 1205Lu, column group AP (without DFMO)): 230 ± 22 cpm ^3H Spd/μg Protein
- PTS Activity (cpm ^3H Spd/μg Protein) ([3]; WM88, column group AP (without DFMO)): 302 ± 18 cpm ^3H Spd/μg Protein
- PTS Activity (cpm ^3H Spd/μg Protein) ([3]; WM983B, column group AP (without DFMO)): 487 ± 64 cpm ^3H Spd/μg Protein
- PTS Activity (cpm ^3H Spd/μg Protein) ([3]; WM989, column group AP (without DFMO)): 304 ± 28 cpm ^3H Spd/μg Protein
- PTS Activity (cpm ^3H Spd/μg Protein) ([3]; WM3211, column group AP (without DFMO)): 278 ± 58 cpm ^3H Spd/μg Protein
- PTS Activity (cpm ^3H Spd/μg Protein) ([3]; WM3451, column group AP (without DFMO)): 130 ± 21 cpm ^3H Spd/μg Protein
- PTS Activity (cpm ^3H Spd/μg Protein) ([3]; WM3734, column group AP (without DFMO)): 444 ± 46 cpm ^3H Spd/μg Protein
- PTS Activity (cpm ^3H Spd/μg Protein) ([3]; WM3743, column group AP (without DFMO)): 117 ± 23 cpm ^3H Spd/μg Protein
- regrowth of BRAF inhibitor-resistant tumor [4]: significantly retards the regrowth
- IC50 (WM3211 melanoma cells): 4.5 µM
- sensitivity to AP (IC50 compared to BRAF WT B16F10 cells) [5]: significantly more sensitive
- SDF-1-stimulated migration of CXCR4+ macrophages ([6]; FIG. 13): inhibits
- viability of the macrophages ([6]; in the chemotaxis assay): without affecting the viability
